pIC50: −log10 of the molar value.
System: SK-MEL-2 multi-cell spheroids, viability
Test: Anticancer human tumor SK-MEL-2 cell line growth inhibition [TAK];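 note: spheroids exposed to drugs for seven days before readout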;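 for viability, T/C: percent of DMSO vehicle control luminescence so 100% = untreated viability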
Settings: for pIC50: curve of first compound; for viability, T/C: stronger effect = lower value
Source text: Combinatorial screen of targeted agents with TAK-243 and ipatasertib in multi-cell type tumor spheroids
A high-throughput screen of multi-cell type tumor spheroids was designed to identify active combinations of targeted small molecules and TAK-243 or ipatasertib. Complex spheroids include a stromal component modeled by human endothelial cells (HUVEC) and fibroblasts modeled by human mesenchymal stem cells (MSCs). The concentration ranges selected for each drug and investigational agent were based upon clinically achievable concentrations if the clinical Cmax of the agent was known.
Compounds. The drugs and investigational agents: TAK-243 (785004), ipatasertib (767898), everolimus (733504), selumetinib (741078), bortezomib (756655), trametinib (758246), ixazomib (758254), vemurafenib (761431), dabrafenib (764134), sapanisertib (764658), alpelisib (765974), and copanlisib (816437), were obtained from the National Cancer Institute (NCI) Developmental Therapeutics Program Chemical Repository. The FDA-approved anticancer drug set is available from the NCI Developmental Therapeutics Program. […] The stock solutions were prepared in dimethyl sulfoxide (DMSO, Sigma-Aldrich, St. Louis, MO, cat. D2650) at 800-fold the tested concentration and stored at -70 degrees C prior to their use. All drugs and investigational agents were tested over a range starting from a high concentration at or near the clinical Cmax and decreasing in half-log increments. If the clinical Cmax for an agent had not been determined, the highest concentration tested was 10 microM.
NCI60 Cell Culture. NCI60 cell lines were obtained from the NCI Developmental Therapeutics Program Tumor Repository. For each lot of cells, the Repository performed Applied Biosystems AmpFLSTR Identifiler testing with PCR amplification to confirm consistency with the published Identifier STR profile for each cell line. Cells were kept in continuous culture for no more than 20 passages. The optimal seeding densities for each of the cell lines at each time point assessed were determined prior to performing the concentration response studies. Briefly, the NCI60 human tumor lines were grown as monolayers in RPMI 1640 medium supplemented with 10% FBS and 2 mmol/L L-glutamine.
An additional 2 lines were from the NCI60 cell line panel including melanomas, MALME-3M and SK-MEL-2. Pooled donor human umbilical vein endothelial cells (HUVEC, Lonza, cat. CC-2519) and human mesenchymal stem cells (hMSC, Lonza, cat. PT-2501) were purchased from Lonza (Walkersville, MD).
PDMR cell lines were grown in complete medium (DC medium): Dulbecco's modified Eagle's medium (DMEM)/F12 supplemented with 5% fetal bovine serum (FBS), 2 mM L-glutamine, 100 U/mL penicillin and 100 µg/ml streptomycin, 0.4 µg/ml hydrocortisone, 10 ng/ml epidermal growth factor (EGF) recombinant human protein, 24 µg/mL adenine, and 0.1 mg/mL primocin. During culture from frozen stock vials, PDMR cells were cultured in the same medium containing 10 µM Y-27632 (see Table 3). The PDCs were cultured in complete DMEM/F12 media without 10 microM Y-27632 dihydrochloride for at least two passages prior to the screen. The pooled donor HUVEC and hMSC were cultured in endothelial cell growth medium 2 (PromoCell, Heidelberg, Germany, cat. C-22011) and mesenchymal stem cell growth medium 2 (PromoCell, cat. C-28009), respectively. For all experiments, HUVEC and hMSC were used at passages </=5.
For the pre-screen, cell seeding densities were determined from a titration spanning the range from 5,000 to 313 cells per well. The mct-spheroids including 60% malignant cells, 25% HUVEC and 15% MSC dispensed as a mixture into U-bottom Ultra-Low Attachment 384-well plates (Corning, NY)
High-throughput Drug Combination Screening.
Prior to their inoculation into 384-well plates, malignant cells, HUVEC, and hMSC were removed from T flasks using TrypLE express (Thermo Fisher Scientific, cat. 12605036) and harvested by centrifugation for 5 min at 233 x g. […]

## CC(C)n1nc(-c2ccc3oc(N)nc3c2)c2c(N)ncnc21 + CC(C)NCC(C(=O)N1CCN(c2ncnc3c2C(C)CC3O)CC1)c1ccc(Cl)cc1
Second compound 0.3 µM
  pIC50: 7.53
Second compound 0.949 µM
  pIC50: 7.97
Second compound 3 µM
  pIC50: 8.49
Second compound 9.49 µM
  pIC50: 8.88
Second compound 30 µM
  pIC50: 9.07
Second compound 0.3 µM, first compound 0.000316 µM
  viability, T/C: 98.6%
Second compound 0.3 µM, first compound 0.001 µM
  viability, T/C: 92.4%
Second compound 0.3 µM, first compound 0.00316 µM
  viability, T/C: 82.1%
Second compound 0.3 µM, first compound 0.01 µM
  viability, T/C: 76.8%
Second compound 0.3 µM, first compound 0.0316 µM
  viability, T/C: 45.8%
Second compound 0.3 µM, first compound 0.1 µM
  viability, T/C: 25.5%
Second compound 0.949 µM, first compound 0.000316 µM
  viability, T/C: 85.6%
Second compound 0.949 µM, first compound 0.001 µM
  viability, T/C: 82%
Second compound 0.949 µM, first compound 0.00316 µM
  viability, T/C: 58.7%
Second compound 0.949 µM, first compound 0.01 µM
  viability, T/C: 55.6%
Second compound 0.949 µM, first compound 0.0316 µM
  viability, T/C: 33.4%
Second compound 0.949 µM, first compound 0.1 µM
  viability, T/C: 19%
Second compound 3 µM, first compound 0.000316 µM
  viability, T/C: 66%
Second compound 3 µM, first compound 0.001 µM
  viability, T/C: 62.3%
Second compound 3 µM, first compound 0.00316 µM
  viability, T/C: 48.5%
Second compound 3 µM, first compound 0.01 µM
  viability, T/C: 37.8%
Second compound 3 µM, first compound 0.0316 µM
  viability, T/C: 27.2%
Second compound 3 µM, first compound 0.1 µM
  viability, T/C: 12.5%
Second compound 9.49 µM, first compound 0.000316 µM
  viability, T/C: 56.3%
Second compound 9.49 µM, first compound 0.001 µM
  viability, T/C: 54.4%
Second compound 9.49 µM, first compound 0.00316 µM
  viability, T/C: 42.2%
Second compound 9.49 µM, first compound 0.01 µM
  viability, T/C: 34.7%
Second compound 9.49 µM, first compound 0.0316 µM
  viability, T/C: 25.1%
Second compound 9.49 µM, first compound 0.1 µM
  viability, T/C: 13.6%
Second compound 30 µM, first compound 0.000316 µM
  viability, T/C: 52.6%
Second compound 30 µM, first compound 0.001 µM
  viability, T/C: 51.4%
Second compound 30 µM, first compound 0.00316 µM
  viability, T/C: 41.2%
Second compound 30 µM, first compound 0.01 µM
  viability, T/C: 32.9%
Second compound 30 µM, first compound 0.0316 µM
  viability, T/C: 20.7%
Second compound 30 µM, first compound 0.1 µM
  viability, T/C: 9.08%

## CC(=O)Nc1cccc(-n2c(=O)n(C3CC3)c(=O)c3c(Nc4ccc(I)cc4F)n(C)c(=O)c(C)c32)c1 + CC(C)NCC(C(=O)N1CCN(c2ncnc3c2C(C)CC3O)CC1)c1ccc(Cl)cc1
Second compound 0.3 µM
  pIC50: 9.69
Second compound 0.949 µM
  pIC50: 9.82
Second compound 3 µM
  pIC50: > 10.02
Second compound 9.49 µM
  pIC50: > 10.02
Second compound 30 µM
  pIC50: > 10.02
Second compound 0.3 µM, first compound 94.9 pM
  viability, T/C: 78.9%
Second compound 0.3 µM, first compound 0.0003 µM
  viability, T/C: 35.2%
Second compound 0.3 µM, first compound 0.000949 µM
  viability, T/C: 10.4%
Second compound 0.3 µM, first compound 0.003 µM
  viability, T/C: 5.62%
Second compound 0.3 µM, first compound 0.00949 µM
  viability, T/C: 2.19%
Second compound 0.3 µM, first compound 0.03 µM
  viability, T/C: 1.65%
Second compound 0.949 µM, first compound 94.9 pM
  viability, T/C: 63.2%
Second compound 0.949 µM, first compound 0.0003 µM
  viability, T/C: 29.8%
Second compound 0.949 µM, first compound 0.000949 µM
  viability, T/C: 10.2%
Second compound 0.949 µM, first compound 0.003 µM
  viability, T/C: 3.49%
Second compound 0.949 µM, first compound 0.00949 µM
  viability, T/C: 1.83%
Second compound 0.949 µM, first compound 0.03 µM
  viability, T/C: 1.53%
Second compound 3 µM, first compound 94.9 pM
  viability, T/C: 47%
Second compound 3 µM, first compound 0.0003 µM
  viability, T/C: 21%
Second compound 3 µM, first compound 0.000949 µM
  viability, T/C: 3.96%
Second compound 3 µM, first compound 0.003 µM
  viability, T/C: 2.14%
Second compound 3 µM, first compound 0.00949 µM
  viability, T/C: 1.28%
Second compound 3 µM, first compound 0.03 µM
  viability, T/C: 0.92%
Second compound 9.49 µM, first compound 94.9 pM
  viability, T/C: 39%
Second compound 9.49 µM, first compound 0.0003 µM
  viability, T/C: 19.2%
Second compound 9.49 µM, first compound 0.000949 µM
  viability, T/C: 5.57%
Second compound 9.49 µM, first compound 0.003 µM
  viability, T/C: 1.46%
Second compound 9.49 µM, first compound 0.00949 µM
  viability, T/C: 1.58%
Second compound 9.49 µM, first compound 0.03 µM
  viability, T/C: 0.65%
Second compound 30 µM, first compound 94.9 pM
  viability, T/C: 39.5%
Second compound 30 µM, first compound 0.0003 µM
  viability, T/C: 17.5%
Second compound 30 µM, first compound 0.000949 µM
  viability, T/C: 3.27%
Second compound 30 µM, first compound 0.003 µM
  viability, T/C: 1.19%
Second compound 30 µM, first compound 0.00949 µM
  viability, T/C: 0.56%
Second compound 30 µM, first compound 0.03 µM
  viability, T/C: 1.06%
